Measurements from DBAASP.
In brackets after ≈: the same amount, converted by molar mass.

What was measured:
Assay in all cases: ≥ marks a high value that may be exact or a test limit, other limits are often not marked, values filed in µg/mL are converted to µM
Escherichia coli = system: Escherichia coli
[1] = system: Bifidobacterium longum subsp. infantis
Staphylococcus aureus = system: Staphylococcus aureus
[2] = system: Pseudomonas aeruginosa LMG 6395
[3] = system: Klebsiella aerogenes LMG 02094
[4] = system: Klebsiella pneumoniae LMG 20218
[5] = system: Acinetobacter baumannii LMG 01041
[6] = system: Escherichia coli LMG 15862
Phytophthora nicotianae = system: Phytophthora nicotianae
[7] = system: Escherichia coli ATCC 25922
[8] = system: Staphylococcus aureus ATCC 25923
[9] = system: Saccharomyces cerevisiae AS2.430
Candida albicans = system: Candida albicans
[10] = system: Staphylococcus aureus ATCC 49476
[11] = system: Pseudomonas aeruginosa ATCC 27853
Staphylococcus aureus MR = system: Staphylococcus aureus MR
[12] = system: Klebsiella pneumoniae ATCC 700603
[13] = system: Pseudomonas aeruginosa ATCC 9027
Acinetobacter baumannii = system: Acinetobacter baumannii
Klebsiella pneumoniae = system: Klebsiella pneumoniae
[14] = system: Staphylococcus aureus ATCC 29737
[15] = system: Escherichia coli BW25113 ΔsbmA
[16] = system: Enterobacter cloacae ATCC 13047
Escherichia coli BW25113 = system: Escherichia coli BW25113
[17] = system: Enterococcus faecium ATCC 19434
[18] = system: Acinetobacter baumannii ATCC 19606
[19] = system: Staphylococcus aureus USA 300
[20] = system: Streptococcus pyogenes M1T1 5448
[21] = system: Pseudomonas aeruginosa PAO1
Escherichia coli BL21 = system: Escherichia coli BL21
[22] = system: Enterococcus faecium E007
[23] = system: Acinetobacter baumannii ATCC 7978
[24] = system: Staphylococcus aureus ATCC 29231
[25] = system: Staphylococcus aureus MW2
[26] = system: Pseudomonas aeruginosa PA14
[27] = system: Klebsiella pneumoniae WGLW2

For `CC[C@H](C)[C@H](NC(=O)[C@@H]1CCCN1C(=O)[C@@H](N)CCC(=O)O)C(=O)N1CCC[C@H]1C(=O)N[C@@H](CC(C)C)C(=O)N[C@@H](CCC(=O)O)C(=O)N[C@@H](CO)C(=O)N[C@@H](CCCN=C(N)N)C(=O)N[C@@H](CCC(=O)O)C(=O)N[C@@H](CCC(=O)O)C(=O)O` [EPIPLESREE], the MIC (Escherichia coli) was 2090 µM (≈ 2500 µg/mL), the MIC [1] was at least 2500 µM and the MIC (Staphylococcus aureus) was 2090 µM (≈ 2500 µg/mL).

In the case of `CC[C@H](C)[C@H](NC(=O)[C@H](C)N)C(=O)N[C@H](C(=O)N[C@@H](CCC(N)=O)C(=O)N[C@@H](CCCN=C(N)N)C(=O)N[C@H](C(=O)N[C@@H](CCCCN)C(=O)N[C@@H](CCCCN)C(=O)N[C@@H](Cc1c[nH]c2ccccc12)C(=O)N[C@@H](CC(C)C)C(=O)N[C@@H](CCCN=C(N)N)C(N)=O)[C@@H](C)CC)C(C)C` [AIVQRIKKWLR], the MIC [2] is reported as 16 µM (≈ 22.6 µg/mL), the MIC [3] is reported as at least 128 µM and the MIC [4] is reported as 24 µM (≈ 33.8 µg/mL). It also gave an MIC [5] of at least 128 µM and an MIC [6] of 12 µM (≈ 16.9 µg/mL).

Work on `CC[C@H](C)[C@H](NC(=O)CN)C(=O)N[C@@H](Cc1ccccc1)C(=O)N[C@@H](CO)C(=O)N[C@@H](CCCCN)C(=O)N[C@@H](CC(C)C)C(=O)N[C@@H](C)C(=O)NCC(=O)N[C@@H](CCCCN)C(=O)N[C@@H](CCCCN)C(=O)N[C@@H](CC(C)C)C(=O)N[C@@H](CCCCN)C(=O)N[C@@H](CC(N)=O)C(=O)N[C@@H](CC(C)C)C(=O)N[C@@H](CC(C)C)C(=O)N[C@H](C(=O)N[C@@H](CO)C(=O)NCC(=O)N[C@@H](CC(C)C)C(N)=O)[C@@H](C)CC` [GIFSKLAGKKLKNLLISGL] yielded an MIC (Phytophthora nicotianae) of 12 µM (≈ 24 µg/mL).

Work on `CC(C)C[C@H](NC(=O)[C@H](CCC(=O)O)NC(=O)[C@@H](N)CCCCN)C(=O)N[C@@H](CCC(=O)O)C(=O)N[C@@H](CCC(=O)O)C(=O)N[C@@H](CCCCN)C(=O)O` [KELEEK] yielded an MIC [7] of 807 µM (≈ 625 µg/mL), an MIC [8] of 403 µM (≈ 313 µg/mL) and an MIC [9] of at least 25800 µM.

In the case of `CC[C@H](C)[C@H](NC(=O)[C@H](CC(C)C)NC(=O)[C@H](CCCN=C(N)N)NC(=O)[C@H](Cc1cnc[nH]1)NC(=O)[C@H](CCC(=O)O)NC(=O)[C@H](C)NC(=O)[C@H](CCCCN)NC(=O)CNC(=O)[C@H](C)NC(=O)[C@H](CO)NC(=O)[C@H](Cc1ccccc1)NC(=O)[C@H](CC(C)C)NC(=O)CNC(=O)CNC(=O)[C@@H](NC(=O)[C@@H](NC(=O)[C@H](Cc1cnc[nH]1)NC(=O)[C@H](Cc1cnc[nH]1)NC(=O)[C@@H](NC(=O)[C@@H](N)Cc1ccccc1)[C@@H](C)CC)[C@@H](C)CC)[C@@H](C)CC)C(=O)N[C@@H](CCCN=C(N)N)C(=O)N[C@@H](CCCN=C(N)N)C(=O)N[C@@H](CCCN=C(N)N)C(=O)N[C@@H](CCCN=C(N)N)C(=O)N[C@@H](CCCN=C(N)N)C(=O)O` [FIHHIIGGLFSAGKAEHRLIRRRRR], the MIC (Candida albicans) is reported as 42.7 µM (≈ 128 µg/mL), the MIC [10] is reported as at least 171 µM and the MIC [11] is reported as over 171 µM. For the same molecule, the MIC (Staphylococcus aureus MR) was at least 171 µM.

Work on `CC(C)C[C@H](NC(=O)[C@H](Cc1c[nH]c2ccccc12)NC(=O)[C@@H](NC(=O)[C@H](CC(C)C)NC(=O)[C@@H]1CCCN1C(=O)[C@@H](N)Cc1ccccc1)[C@@H](C)O)C(=O)N[C@@H](CCCCN)C(=O)N[C@@H](Cc1c[nH]c2ccccc12)C(=O)N[C@@H](Cc1c[nH]c2ccccc12)C(=O)N[C@@H](CCCCN)C(=O)N[C@@H](Cc1c[nH]c2ccccc12)C(=O)N[C@@H](CCCCN)C(=O)N[C@@H](CCCCN)C(N)=O` [FPLTWLKWWKWKK] yielded an MIC [7] of 16.9 µM (≈ 31.2 µg/mL), an MIC [12] of 8.45 µM (≈ 15.6 µg/mL) and an MIC [13] of 33.8 µM (≈ 62.5 µg/mL). For the same molecule, the MIC (Acinetobacter baumannii) was 16.9 µM (≈ 31.2 µg/mL), the MIC (Klebsiella pneumoniae) was 8.66 µM (≈ 16 µg/mL) and the MIC [14] was 8.45 µM (≈ 15.6 µg/mL).

`CC[C@H](C)[C@H](NC(=O)[C@H](CCCN=C(N)N)NC(=O)[C@@H](N)Cc1c[nH]c2ccccc12)C(=O)N[C@@H](CCCN=C(N)N)C(=O)N[C@@H](CCCN=C(N)N)C(=O)N[C@@H](CCCN=C(N)N)C(=O)N[C@@H](Cc1c[nH]c2ccccc12)C(=O)N1CCC[C@H]1C(=O)N[C@@H](CCCN=C(N)N)C(=O)N[C@@H](CC(C)C)C(=O)N1CCC[C@H]1C(=O)N[C@@H](CCCN=C(N)N)C(=O)N1CCC[C@H]1C(=O)N[C@@H](CCCN=C(N)N)C(=O)N[C@@H](Cc1c[nH]c2ccccc12)C(=O)N[C@@H](CCCN=C(N)N)C(=O)O` [WRIRRRWPRLPRPRWR] gave an MIC [12] of 2 µM (≈ 4.69 µg/mL), an MIC [11] of 32 µM (≈ 75 µg/mL) and an MIC [8] of 12 µM (≈ 28.1 µg/mL). For the same molecule, the MIC [15] was 4 µM (≈ 9.38 µg/mL), the MIC [16] was 8 µM (≈ 18.8 µg/mL) and the MIC (Escherichia coli BW25113) was 2 µM (≈ 4.69 µg/mL). For the same molecule, the MIC [17] was at least 32 µM and the MIC [18] was 4 µM (≈ 9.38 µg/mL).

`CC[C@H](C)[C@H](NC(=O)[C@H](CCCN=C(N)N)NC(=O)[C@H](CCCCN)NC(=O)[C@@H](NC(=O)[C@H](CCCCN)NC(=O)[C@H](CCCN=C(N)N)NC(=O)[C@@H](NC(=O)[C@H](Cc1ccc(O)cc1)NC(=O)[C@H](CCCN=C(N)N)NC(=O)[C@H](CCCN=C(N)N)NC(=O)[C@H](CC(C)C)NC(=O)[C@H](CCC(=O)O)NC(=O)[C@H](CCCCN)NC(=O)[C@H](C)NC(=O)[C@@H](NC(=O)[C@H](CCCN=C(N)N)NC(=O)[C@H](CC(N)=O)NC(=O)[C@@H](NC(=O)CNC(=O)[C@H](C)N)[C@@H](C)O)[C@@H](C)CC)[C@@H](C)CC)C(C)C)C(=O)N[C@@H](C)C(=O)N[C@@H](CCCN=C(N)N)C(=O)N[C@@H](CCCCN)C(=O)N[C@@H](C)C(=O)N[C@@H](Cc1c[nH]c2ccccc12)C(=O)O` [AGTNRIAKELRRYIRKVKRIARKAW] gave an MIC [19] of 16 µM (≈ 48.9 µg/mL), an MIC [20] of 1 µM (≈ 3.05 µg/mL) and an MIC [21] of 16 µM (≈ 48.9 µg/mL). For the same molecule, the MIC (Escherichia coli BL21) was 0.5 µM (≈ 1.53 µg/mL).

`CC[C@H](C)[C@H](NC(=O)[C@H](Cc1c[nH]c2ccccc12)NC(=O)[C@H](CCCCN)NC(=O)[C@@H](N)CC(C)C)C(=O)NCC(=O)N[C@@H](CCCCN)C(=O)N[C@@H](Cc1c[nH]c2ccccc12)C(=O)N[C@H](C(=O)N[C@@H](Cc1c[nH]c2ccccc12)C(=O)N[C@@H](CCCN=C(N)N)C(=O)N[C@H](C(=O)NCC(=O)N[C@@H](Cc1c[nH]c2ccccc12)C(=O)N[C@@H](CC(N)=O)C(=O)N[C@@H](Cc1c[nH]c2ccccc12)C(=O)N[C@@H](CCCN=C(N)N)C(=O)O)C(C)C)[C@@H](C)CC` [LKWIGKWIWRVGWNWR] was tested, and the MIC [22] was at least 58.6 µM, the MIC [23] was at least 58.6 µM and the MIC [24] was at least 58.6 µM. For the same molecule, the MIC [25] was 29.3 µM (≈ 64 µg/mL).

Molecule `CC[C@H](C)[C@H](NC(=O)[C@H](Cc1c[nH]c2ccccc12)NC(=O)[C@H](CCCCN)NC(=O)[C@@H](N)CC(C)C)C(=O)NCC(=O)N[C@@H](CCCCN)C(=O)N[C@@H](CCCCN)C(=O)N[C@H](C(=O)N[C@@H](Cc1c[nH]c2ccccc12)C(=O)N[C@@H](CCCN=C(N)N)C(=O)N[C@H](C(=O)NCC(=O)O)C(C)C)[C@@H](C)CC` [LKWIGKKIWRVG] has an MIC [23] of at least 86.3 µM, an MIC [24] of at least 86.3 µM and an MIC [26] of at least 86.3 µM. For the same molecule, the MIC [27] was at least 86.3 µM.
